Reference: patent US12428406B2 (PMV Pharmaceuticals, Inc., priority 2019, dated 2025)

molecular target: T1, p53 Y220C (Homo sapiens, UniProt P04637, Y220C); assay: In vitro DNA binding activity assay (HTRF / TR-FRET): stabilization of p53 Y220C and increase of its DNA binding activity; assay type: biochemical; conditions: recombinant His-tagged p53 Y220C DNA binding domain (aa 94-312), biotin-labeled consensus DNA, incubated at 27° C. or 29° C. for 60 min
T1 construct: The recombinant protein was a truncation mutant containing only amino acids 94-312 of p53; made in house; host or cells: E. coli
T1 sequence (P04637 94-312, change not shown): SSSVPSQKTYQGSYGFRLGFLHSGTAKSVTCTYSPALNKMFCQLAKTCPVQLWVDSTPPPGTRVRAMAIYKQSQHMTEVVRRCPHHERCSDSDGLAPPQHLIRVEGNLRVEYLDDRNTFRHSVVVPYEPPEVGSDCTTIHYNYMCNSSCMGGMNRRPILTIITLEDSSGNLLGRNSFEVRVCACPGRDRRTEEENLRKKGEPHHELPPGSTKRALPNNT
Outline: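 E. coli His-p53 Y220C + biotin consensus DNA; anti-His-APC/SA-Eu TR-FRET. SC150 vs no-compound.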

| Structure (SMILES) | SC150 (concentration of the compound required to increase the DNA binding activity by 50%) |
| --- | --- |
| COc1cc(S(N)(=O)=O)ccc1NCC#Cc1cc2c(N[C@H]3CC[C@H](N4CCC5(CCOC5)CC4)CC3)cccc2n1CC(F)(F)F [Compound 411A, 3-methoxy-4-{[3-(4-{[(1R,4R)-4-{2-oxa-8-azaspiro[4.5]decan-8-yl}cyclohexyl]amino}-1-(2,2,2-trifluoroethyl)-1H-indol-2-yl)prop-2-yn-1-yl]amino}benzene-1-sulfonamide] | + (+ = 0 μM ≤ SC150 < 0.05 μM) |
| COc1cc(S(C)(=O)=O)ccc1NCC#Cc1cc2c(N[C@@H]3CCC(O)C[C@@H]3F)cccc2n1CC(F)(F)F (stereo partly drawn) [Compound 43A, (3S,4R)-3-fluoro-4-[(2-{3-[(4-methanesulfonyl-2-methoxyphenyl)amino]prop-1-yn-1-yl}-1-(2,2,2-trifluoroethyl)-1H-indol-4-yl)amino]cyclohexan-1-ol] | + (+ = 0 μM ≤ SC150 < 0.05 μM) |
| COc1cc(S(C)(=O)=O)ccc1NCC#Cc1cc2c(N[C@H]3CC[C@H](N4CCOCC4)CC3)cccc2n1CC#N [Compound 174A, 2-(2-{3-[(4-methane-sulfonyl-2-methoxy-phenyl)amino]prop-1-yn-1-yl}-4-{[(1R,4R)-4-(morpholin-4-yl)cyclo-hexyl]amino}-1H-indol-1-yl)acetonitrile] | + (+ = 0 μM ≤ SC150 < 0.05 μM) |
| COc1cc(S(=O)(=O)N(C)C)ccc1NCC#Cc1cc2c(NC3CCN(CC(O)CO)CC3)cccc2n1CC(F)(F)F (centres unmarked) [Compound 564A, 4-{[3-(4-{[1-(2,3-dihydroxypropyl)piperidin-4-yl]amino}-1-(2,2,2-trifluoroethyl)-1H-indol-2-yl)prop-2-yn-1-yl]amino}-3-methoxy-N,N-dimethylbenzene-1-sulfonamide] | + (+ = 0 μM ≤ SC150 < 0.05 μM) |
| COc1cc(S(C)(=O)=O)ccc1NCC#Cc1cc2c(N[C@H]3CCOC[C@H]3OC)cccc2n1CC(F)(F)F [Compound 1024A, 2-(3-((2-methoxy-4-(methylsulfonyl)phenyl)amino)prop-1-yn-1-yl)-N-((3S,4S)-3-methoxytetrahydro-2H-pyran-4-yl)-1-(2,2,2-trifluoroethyl)-1H-indol-4-amine] | + (+ = 0 μM ≤ SC150 < 0.05 μM) |
| COc1cc(S(C)(=O)=O)ccc1NCC#Cc1cc2c(N[C@H]3CC[C@H](N4CCC5(CC4)COC5)CC3)cccc2n1CC(F)(F)F [Compound 313A, 2-{3-[(4-methane-sulfonyl-2-methoxy-phenyl)amino]prop-1-yn-1-yl}-N-[(1R,4R)-4-{2-oxa-7-azaspiro[3.5]nonan-7-yl}cyclohexyl]-1-(2,2,2-trifluoroethyl)-1H-indol-4-amine] | + (+ = 0 μM ≤ SC150 < 0.05 μM) |
| CCN1CC[C@H](Nc2cccc3c2cc(C#CCNc2ccc(S(C)(=O)=O)cc2OC)n3CC(F)(F)F)[C@H](F)C1 [Compound 813A] | + (+ = 0 μM ≤ SC150 < 0.05 μM) |
| COc1cc(S(C)(=O)=O)ccc1NCC#Cc1cc2c(NC(=O)N3CCN(C)CC3)cccc2n1CC(F)(F)F [Compound 8A, N-(2-{3-[(4-methanesulfonyl-2-methoxyphenyl)amino]prop-1-yn-1-yl}-1-(2,2,2-trifluoroethyl)-1H-indol-4-yl)-4-methylpiperazine-1-carboxamide] | ++++ (++++ = 0.2 μM ≤ SC150 < 1 μM) |
| COCC(CN1CCC(Nc2cccc3c2cc(C#CCNc2ccc(S(N)(=O)=O)cc2OC)n3CC(F)(F)F)CC1)OC(=O)C(C)C (centres unmarked) [Compound 604A, 1-methoxy-3-{4-[(2-{3-[(2-methoxy-4-sulfamoylphenyl)amino]prop-1-yn-1-yl}-1-(2,2,2-trifluoroethyl)-1H-indol-4-yl)amino]piperidin-1-yl}propan-2-yl 2-methylpropanoate] | + (+ = 0 μM ≤ SC150 < 0.05 μM) |
| COc1cc(S(=O)(=O)N(C)CCO)ccc1NCC#Cc1cc2c(NC3CCS(=O)(=O)CC3)cccc2n1CC(F)(F)F [Compound 1038A, 4-[(3-{4-[(1,1-dioxo-1λ^6-thian-4-yl)amino]-1-(2,2,2-trifluoroethyl)-1H-indol-2-yl}prop-2-yn-1-yl)amino]-N-(2-hydroxyethyl)-3-methoxy-N-methylbenzene-1-sulfonamide] | + (+ = 0 μM ≤ SC150 < 0.05 μM) |
| COCC(O)CN1CCC(Nc2cccc3c2cc(C#CCNc2ccc(S(C)(=O)=O)cc2OC(F)F)n3CC(F)(F)F)CC1 (centres unmarked) [Compound 668A, 1-(4-{[2-(3-{[2-(difluoromethoxy)-4-methanesulfonylphenyl]amino}prop-1-yn-1-yl)-1-(2,2,2-trifluoroethyl)-1H-indol-4-yl]amino}piperidin-1-yl)-3-methoxypropan-2-ol] | + (+ = 0 μM ≤ SC150 < 0.05 μM) |
| CCC(=O)OCCN1CCC(Nc2cccc3c2cc(C#CCNc2ccc(S(C)(=O)=O)cc2OC)n3CC(F)(F)F)CC1 [Compound 585A, 2-{4-[(2-{3-[(4-methanesulfonyl-2-methoxyphenyl)amino]prop-1-yn-1-yl}-1-(2,2,2-trifluoroethyl)-1H-indol-4-yl)amino]piperidin-1-yl}ethyl propanoate] | + (+ = 0 μM ≤ SC150 < 0.05 μM) |
| COc1cc(S(N)(=O)=O)ccc1NCC#Cc1cc2c(NC3CCN(CCOC(=O)C(C)C)CC3)cccc2n1CC(F)(F)F [Compound 600A, 2-{4-[(2-{3-[(2-methoxy-4-sulfamoylphenyl)amino]prop-1-yn-1-yl}-1-(2,2,2-trifluoroethyl)-1H-indol-4-yl)amino]piperidin-1-yl}EtOAc] | + (+ = 0 μM ≤ SC150 < 0.05 μM) |
| CN(C)[C@H]1CC[C@H](Nc2cccc3c2cc(C#CCNc2ccc(S(N)(=O)=O)cc2OCC#N)n3CC(F)(F)F)CC1 [Compound 123A, 3-(cyanomethoxy)-4-{[3-(4-{[(1R,4R)-4-(dimethylamino)cyclohexyl]amino}-1-(2,2,2-trifluoroethyl)-1H-indol-2-yl)prop-2-yn-1-yl]amino}benzene-1-sulfonamide] | + (+ = 0 μM ≤ SC150 < 0.05 μM) |
| COc1cc(S(=O)(=O)N2CCN(C)CC2)ccc1NCC#Cc1cc2c(NC3CCN(C)CC3)cccc2n1CC(F)(F)F [Compound 485A, 2-[3-({2-methoxy-4-[(4-methylpiperazin-1-yl)sulfonyl]phenyl}amino)prop-1-yn-1-yl]-N-(1-methylpiperidin-4-yl)-1-(2,2,2-trifluoroethyl)-1H-indol-4-amine] | + (+ = 0 μM ≤ SC150 < 0.05 μM) |
| NS(=O)(=O)c1ccc(NCC#Cc2cc3c(N[C@H]4CC[C@H](N5CCC6(CC5)COC6)CC4)cccc3n2CC(F)(F)F)c(OCF)c1 [Compound 381A, 3-(fluoromethoxy)-4-{[3-(4-{[(1R,4R)-4-{2-oxa-7-azaspiro[3.5]nonan-7-yl}cyclohexyl]amino}-1-(2,2,2-trifluoroethyl)-1H-indol-2-yl)prop-2-yn-1-yl]amino}benzene-1-sulfonamide] | + (+ = 0 μM ≤ SC150 < 0.05 μM) |
| COc1cc(C(=O)NCCO)ccc1NCC#Cc1cc2c(NC3CCN(C)CC3)cccc2n1CC(F)(F)F [Compound 496A] | + (+ = 0 μM ≤ SC150 < 0.05 μM) |
| N#CCOc1cc(S(N)(=O)=O)ccc1NCC#Cc1cc2c(N[C@H]3CC[C@@H](N4CC5(CCOCC5)C4)CC3)cccc2n1CC(F)(F)F [Compound 300A, 3-(cyanomethoxy)-4-{[3-(4-{[(1S,4S)-4-{7-oxa-2-azaspiro[3.5]nonan-2-yl}cyclo-hexyl]amino}-1-(2,2,2-trifluoroethyl)-1H-indol-2-yl)prop-2-yn-1-yl]amino}benzene-1-sulfonamide] | + (+ = 0 μM ≤ SC150 < 0.05 μM) |
| COc1cc(S(C)(=O)=O)ccc1NCC#Cc1cc2c(N[C@@H]3CCN(C(=O)CN)C[C@@H]3F)cccc2n1CC(F)(F)F [Compound 893A] | + (+ = 0 μM ≤ SC150 < 0.05 μM) |
| COc1cc(C(=O)NC2CCOCC2)ccc1NCC#Cc1cc2c(N[C@H]3CCN(C)C[C@H]3F)cccc2n1CC(F)(F)F (racemic) [Compound 818A, rac-4-{[3-(4-{[(3R,4S)-3-fluoro-1-methylpiperidin-4-yl]amino}-1-(2,2,2-trifluoroethyl)-1H-indol-2-yl)prop-2-yn-1-yl]amino}-3-methoxy-N-(oxan-4-yl)benzamide] | + (+ = 0 μM ≤ SC150 < 0.05 μM) |
| COc1cc(S(N)(=O)=O)ccc1NCC#Cc1cc2c(N[C@H]3CCNC[C@H]3F)cccc2n1CC(F)(F)F [Compound 846A] | + (+ = 0 μM ≤ SC150 < 0.05 μM) |
| COCC(O)CN1CCC(Nc2cccc3c2cc(C#CCNc2ccc(C(=O)NC(C)C)cc2OC)n3CC(F)(F)F)CC1 (centres unmarked) [Compound 633A, 4-{[3-(4-{[1-(2-hydroxy-3-methoxypropyl)piperidin-4-yl]amino}-1-(2,2,2-trifluoroethyl)-1H-indol-2-yl)prop-2-yn-1-yl]amino}-3-methoxy-N-(propan-2-yl)benzamide] | + (+ = 0 μM ≤ SC150 < 0.05 μM) |
| COCC(O)CN1CCC(Nc2cccc3c2cc(C#CCNc2ccc(S(=O)(=O)C4CC4)cc2OC)n3CC(F)(F)F)CC1 (centres unmarked) [Compound 685A, 1-(4-{[2-(3-{[4-(cyclopropanesulfonyl)-2-methoxyphenyl]amino}prop-1-yn-1-yl)-1-(2,2,2-trifluoroethyl)-1H-indol-4-yl]amino}piperidin-1-yl)-3-methoxypropan-2-ol] | + (+ = 0 μM ≤ SC150 < 0.05 μM) |
